Results from patent US9029388B2, “Condensed heterocyclic compound” (Takeda Pharmaceutical Company Limited, priority 2011, dated 2015).

Assays:
human PDE10A enzyme = molecular target: T1, human PDE10A enzyme (Homo sapiens, UniProt Q9Y233); assay: PDE10A enzyme activity inhibition test (Scintillation Proximity Assay, [3H]cGMP substrate); assay type: biochemical; conditions: control without compound = 0%, without compound and enzyme = 100%; for inhibition at 0.1 µM: compound 0.1 μM, read-out: Inhibitory rate (%) (0.1 μM); for inhibition at 10 µM: compound 10 μM, read-out: Inhibitory rate (%) (10 μM)
T1 construct: Human PDE10A full-length gene was transfected into Sf9 or COS-7 cells; His-tag; made in house; host or cells: Sf9 or COS-7 cells
T1 sequence (Q9Y233 267-1055): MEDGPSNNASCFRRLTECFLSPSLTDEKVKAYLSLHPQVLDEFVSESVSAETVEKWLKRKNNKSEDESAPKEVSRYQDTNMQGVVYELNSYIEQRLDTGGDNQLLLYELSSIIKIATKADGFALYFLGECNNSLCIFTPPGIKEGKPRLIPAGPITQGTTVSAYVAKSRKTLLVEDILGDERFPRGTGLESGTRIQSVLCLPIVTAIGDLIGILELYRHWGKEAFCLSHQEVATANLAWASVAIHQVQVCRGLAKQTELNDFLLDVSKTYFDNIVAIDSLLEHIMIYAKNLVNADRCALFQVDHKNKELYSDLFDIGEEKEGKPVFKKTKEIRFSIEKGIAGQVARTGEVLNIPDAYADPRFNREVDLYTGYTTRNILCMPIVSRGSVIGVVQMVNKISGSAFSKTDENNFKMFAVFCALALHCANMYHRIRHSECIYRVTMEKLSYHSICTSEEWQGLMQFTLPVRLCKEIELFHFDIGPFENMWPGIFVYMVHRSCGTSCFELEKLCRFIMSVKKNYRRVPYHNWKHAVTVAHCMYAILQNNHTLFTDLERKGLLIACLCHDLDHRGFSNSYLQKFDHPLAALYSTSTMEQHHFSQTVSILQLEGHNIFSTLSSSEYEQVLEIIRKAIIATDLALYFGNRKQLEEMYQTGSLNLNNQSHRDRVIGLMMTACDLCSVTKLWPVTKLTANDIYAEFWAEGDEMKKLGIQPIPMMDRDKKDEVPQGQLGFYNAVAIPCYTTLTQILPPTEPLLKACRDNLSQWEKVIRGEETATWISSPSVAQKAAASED
Description: Human PDE10A full-length gene was transfected into Sf9 or COS-7 cells. The cells were disrupted and centrifuged, and human PDE10A enzyme was obtained from the residue. The enzyme extracted from Sf9 cells was partially purified using His-tag affinity column. The enzyme was stored at −70° C. until use.
The PDE 10A enzyme activity was measured using an Scintillation Proximity Assay (SPA, GE Healthcare). To measure the inhibitory activity of the test compound, 10 μL of serially diluted test compound was reacted with 20 μL of PDE 10A enzyme in an assay buffer (50 mM HEPES-NaOH, 8.3 mM MgCl2, 1.7 mM EGTA, 0.1% BSA (pH 7.4)) for 30 min at room temperature. The final concentration of DMSO in the reaction mixture was 1%.
The compounds were evaluated in duplicate in 96-well half-area plates (Corning). To start the reaction, 10 μL of substrate [3H] cGMP (25 or 50 nM; GE Healthcare and PerkinElmer, respectively) was added thereto to the total volume of 40 μL. After 60 min of reaction at room temperature, yttrium SPA beads containing zinc sulphate were added (6 mg/mL, 20 μL) to terminate the reaction. After standing still for 1 hr, the measurement was performed using a scintillation counter (PerkinElmer) and the inhibition rate was calculated. As for the inhibitory rate, the value without addition of the compound (control) was 0%, and that without addition of the compound and enzyme was 100%.

[1] = tested on: hyperlocomotion induced by MK-801; assay: Suppressive action on hyperlocomotion induced by MK-801; assay type: in vivo, rat; conditions: male SD rats; 1 mg/kg p.o., 60 min before MK-801 (0.3 mg/kg, s.c.); vs vehicle, Student's t-test P<0.05; FIG. 1
Text: Male SD rats were purchased from Charles River Laboratories Japan, Inc. (Kanagawa, Japan), and used for the experiment at the age of 8 weeks. After arrival at the vivarium, the animals were acclimated for at least 1 week. The animals were reared under a 12:12 hr light/dark cycle in a temperature- and humidity-controlled laboratory and allowed to freely take food and water.
Example 14 was suspended in 0.5% (w/v) aqueous methylcellulose solution and orally administered (p.o.). (+)-MK-801 hydrogen maleate (MK-801, Sigma-Aldrich, St Louis, State of Missouri) was dissolved in saline, and subcutaneously administered (s.c.). All drugs were dosed in a volume of 2 mL/kg body weight for rats.
Hyperlocomotion induced by psychostimulants (e.g., amphetamine, cocaine, methamphetamine, MK-801 and phencyclidine) in rodents is widely used as an animal model of psychosis (Psychopharmacology 1999, vol. 145: 237-250). Using rats, a suppressive action of a compound (Example 14) on the hyperlocomotion induced by MK-801 was tested. Until the start of the test, male SD rats (8-week-old) were acclimated in a locomotor chamber with an infrared sensor set on the upper side (Muromachi Kikai Co., Ltd., Tokyo, Japan). […] Hyperlocomotion was measured every 1 min, and the cumulative count for 120 min from the administration of MK-801 was calculated for each treatment group. […]

Compound	inhibition at 0.1 µM (human PDE10A enzyme) [%]	inhibition at 10 µM (human PDE10A enzyme) [%]	melting point [°C]	suppression of hyperlocomotion induced by MK-801 (cumulative count 0-120 min) [1]
Cc1cn2cccc(-c3ccc(Oc4nc5ccccc5[nH]4)cc3)c2n1 [Example 1, 2-[4-(2-Methylimidazo[1,2-a]pyridin-8-yl)phenoxy]-1H-benzimidazole]	63	98		
c1ccc2[nH]c(Oc3ccc(-c4cccn5ccnc45)cc3)nc2c1 [Example 2, 2-[4-(Imidazo[1,2-a]pyridin-8-yl)phenoxy]-1H-benzimidazole]	62	98		
CCn1nc2cccnc2c1-c1ccc(Oc2nc3ccccc3[nH]2)cc1 [Example 3, 3-[4-(1H-benzimidazol-2-yloxy)phenyl]-2-ethyl-2H-pyrazolo[4,3-b]pyridine]	91	102		
CCn1nc2cccnc2c1-c1ccc(Oc2nc3ccccc3n2C)cc1 [Example 4, 2-Ethyl-3-{4-[(1-methyl-1H-benzimidazol-2-yl)oxy]phenyl}-2H-pyrazolo[4,3-b]pyridine]	93	102		
c1ccc2[nH]c(Oc3ccc(C4CCCn5ccnc54)cc3)nc2c1 (centres unmarked) [Example 5, 2-[4-(5,6,7,8-Tetrahydroimidazo[1,2-a]pyridin-8-yl)phenoxy]-1H-benzimidazole]	2	51		
COc1nn(-c2ccc(Oc3nc4ccccc4[nH]3)cc2)c2ncccc12 [Example 6, 1-[4-(1H-benzimidazol-2-yloxy)phenyl]-3-methoxy-1H-pyrazolo[3,4-b]pyridine]	99			
Cn1c(=O)c2cccnc2n1-c1ccc(Oc2nc3ccccc3[nH]2)cc1 [Example 7, 1-[4-(1H-benzimidazol-2-yloxy)phenyl]-2-methyl-1,2-dihydro-3H-pyrazolo[3,4-b]pyridin-3-one]	59			
CCc1nn(-c2ccc(Oc3nc4ccccc4n3C)cc2)c2ncccc12 [Example 8, 3-Ethyl-1-{4-[(1-methyl-1H-benzimidazol-2-yl)oxy]phenyl}-1H-pyrazolo[3,4-b]pyridine]	93	104		
Cn1c(Oc2ccc(-n3c4ncccc4n4ccnc34)cc2)nc2ccccc21 [Example 9, 9-{4-[(1-Methyl-1H-benzimidazol-2-yl)oxy]phenyl}-9H-imidazo[1′,2′:1,2]imidazo[4,5-b]pyridine]	93	96	232 to 234	
CC(=O)Cn1c(Oc2ccc(-n3c4ncccc4n4ccnc34)cc2)nc2ccccc21 [Example 10, 1-{2-[4-(9H-imidazo[1′,2′:1,2]imidazo[4,5-b]pyridin-9-yl)phenoxy]-1H-benzimidazol-1-yl}propan-2-one]	104	109	189 to 192	
CC(C)(O)Cn1c(Oc2ccc(-n3c4ncccc4n4ccnc34)cc2)nc2ccccc21 [Example 11, 1-{2-[4-(9H-imidazo[1′,2′:1,2]imidazo[4,5-b]pyridin-9-yl)phenoxy]-1H-benzimidazol-1-yl}-2-methylpropan-2-ol]	104	106	208 to 211	
CCc1nn(-c2ccc(Oc3nc4cccnc4n3C)cc2)c2ncccc12 [Example 12, 3-Ethyl-1-{4-[(3-methyl-3H-imidazo[4,5-b]pyridin-2-yl)oxy]phenyl}-1H-pyrazolo[3,4-b]pyridine]	99	101		
Cn1c(Oc2ccc(-n3c4ncccc4n4ccnc34)cc2)nc2cccnc21 [Example 13, 9-{4-[(3-Methyl-3H-imidazo[4,5-b]pyridin-2-yl)oxy]phenyl}-9H-imidazo[1′,2′:1,2]imidazo[4,5-b]pyridine]	97	106	228 to 231	
COCCn1c(Oc2ccc(-n3c4ncccc4n4ccnc34)cc2)nc2cccnc21 [Example 14, 9-(4-{[3-(2-Methoxyethyl)-3H-imidazo[4,5-b]pyridin-2-yl]oxy}phenyl)-9H-imidazo[1′,2′:1,2]imidazo[4,5-b]pyridine]	96	105	178 to 182	significantly suppressed hyperlocomotion induced by MK-801
Cc1ccnc2c1n1ccnc1n2-c1ccc(Oc2nc3cccnc3n2C)cc1 [Example 15, 5-Methyl-9-{4-[(3-methyl-3H-imidazo[4,5-b]pyridin-2-yl)oxy]phenyl}-9H-imidazo[1′,2′:1,2]imidazo[4,5-b]pyridine]	97	95	236 to 239	
COCCn1c(Oc2ccc(-n3c4nccc(C)c4n4ccnc34)cc2)nc2cccnc21 [Example 16, 9-(4-{[3-(2-Methoxyethyl)-3H-imidazo[4,5-b]pyridin-2-yl]oxy}phenyl)-5-methyl-9H-imidazo[1′,2′:1,2]imidazo[4,5-b]pyridine]	98	105	190 to 192	
